According to patent US7279479B2, “Method for the treatment of heart failure” (Orion Corporation, priority 2001, dated 2007):

Assays:
[1] = system: guinea-pigs intoxicated with verapamil; assay: Survival of anesthetized guinea-pigs intoxicated with verapamil (acute heart failure); format: in vivo, guinea-pig (Dunkin Hartley); details: verapamil 2.0 mg/kg i.v.; 60 min follow-up; low doses: levosimendan 8.4 μg/kg bolus + 0.14 μg/kg/min, CaCl2 10 mg/kg bolus + 0.5 mg/kg/min; vs saline control
Experimental: At zero time, the intoxication was started with an intravenous bolus injection of verapamil and immediately continued with a 4-min infusion. The total dose of verapamil was 2.0 mg/kg. Control animals were treated with saline.
(§1) 120 spontaneously breathing guinea-pigs (Dunkin Hartley, weighing 470±5 grams, mean±SEM) were anesthetised with isoflurane. The left ventricular and brachial arterial pressures were measured. The carotid artery was surgically exposed in order to introduce a pressure transducer into the left ventricle. A fluid-filled polyethylene cannula was inserted into the brachial artery and connected to another pressure transducer for recording of arterial pressure. The pressure signals were amplified, digitized and sampled.

[2] = system: guinea-pigs intoxicated with diltiazem; assay: Survival of anesthetized guinea-pigs intoxicated with diltiazem (acute heart failure); format: in vivo, guinea-pig (Dunkin Hartley); details: diltiazem 4.5 mg/kg i.v.
Experimental: At zero time, the intoxication was started with an intravenous bolus injection of diltiazem and immediately continued with a 4-min infusion. The total dose of diltiazem was 4.5 mg/kg. Control animals were treated with saline. All treatments were started one minute after the end of the diltiazem infusion. *p<0.05, **p<0.01, ***p<0.001 vs. control (Kaplan-Meier survival analysis followed by the logrank test).
as §1

CC1CC(=O)NN=C1c1ccc(NN=C(C#N)C#N)cc1 (single isomer, unassigned; (-)) [levosimendan, (−)-enantiomer of [[4-(1,4,5,6-tetrahydro-4-methyl-6-oxo-3-pyridazinyl)phenyl]hydrazono]propanedinitrile]
effect on survival (in words) [1]: did not improve the survival
survival rate ([2]; 60 minutes after intoxication began, levosimendan 8.4 μg/kg bolus + 0.14 μg/kg/min, control 13%): 63%

[Ca+2].[Cl-].[Cl-] [calcium chloride]
effect on survival (in words) [1]: did not affect the survival rate
effect on survival (in words) ([2]; 60 min follow-up, low doses: levosimendan 8.4 μg/kg bolus + 0.14 μg/kg/min, CaCl2 10 mg/kg bolus + 0.5 mg/kg/min, vs saline control): did not affect the survival rate
